Measurements: patent US6489449B2, “Peptides for inhibition of HIV infection” (priority 2000, dated 2002)
Where no end group is shown, it is not given here.

Assay: Secondary structure analysis by circular dichroism (helical content)
Format: physicochemical
Conditions: for Helical content (%) 30% TFE: PBS containing 30% trifluoroethanol, 50 μM peptide; for Helical content (%) PBS: PBS pH 7.0, 50 μM peptide
Experimental: The secondary structures of peptides synthesized in the above Example were analyzed by means of circular dichroism and the circular dichroism spectra of synthesized peptides were analyzed by using 715 CD spectropolarimeter (Jasco Co., Ltd., JAPAN). The peptides of WT(SEQ ID NO. 4), MT(SEQ ID NO. 5), Ncap-MT(SEQ ID NO. 7), Caps-WT(SEQ ID NO. 8), Caps-MT(SEQ ID NO. 9) were dissolved in PBS(pH 7.0) with 100 mM sodium phosphate and 150 mM NaCl to make the final concentration of each peptide 50 μM and were placed for spectrum analyses.
(2)Analyses of Secondary Structures of Peptides in Phosphate Buffered Saline (PBS) containing Trifluoroethanol Experiments were performed the same as described in the above Experimental Example 1 (1) with the exception that the PBS contained 30% trifluoroethanol.

Substance	Helical content (%) 30% TFE [%]	Helical content (%) PBS [%]
APKEWMAWAREIAAYAKLIAALI-NH2 [Ncap-MT, APKEWMaWaREIaaYakLIaaLI]	68	69
APKEWMEWDREINNYTSLIHSLIKQGI-NH2 [Caps-WT]	77	21
WMEWDREINNYTSLIHSLI [WT]	24	18
